Experimental findings from patent publication US8759364B2, “Methods of treating bone mass diseases” (The Trustees of Columbia University in the City of New York, priority 2008, dated 2014) are described below.

The structures appear in SMILES notation.

In one series the test system is serotonin in the brain. The series can be described thus: Brain serotonin and blood brain barrier crossing after oral feeding. In kind it is in vivo, mice. On the procedure: The ability of selective TPH1 inhibitor CBMIDA to reduce peripheral serotonin measured in serum was tested. Either 250 or 500 mg/kg doses of CBMIDA were administered orally twice in 20 hours to 4 week old mice, 4-5 mice per group. As a control, some mice were untreated and some received 250 mg/kg pCPA orally. […] CBMIDA has been reported to be an EDTA analog that increases osteoid volume in beagle dogs and induces proliferation of rat calvarial-derived osteoblasts in vitro (Xie, et al., Bioorganic & Medicinal Chemistry Letters 15 (2005) 3267-3270, incorporated herein by reference in its entirety).
Before the experiments, animals were separated into individual cages one day prior to the experiment. Compounds were fed orally (gavage) to the mouse, calculated according to the weight of the mouse, twice a day at 1700 h and at 1100 h. […] This route created two potential barriers for the compound to reach the brain. […] Control animals received the same volume of vehicle. Blood was collected through heart puncture on isofluorane-anaesthesized animals and allowed to clot for 5 minutes on ice. The serum was separated, snap chilled in liquid nitrogen and frozen at −80° C. till analyzed. Brainstems from all the animals were collected and processed for brain serotonin measurement through HPLC.

Series [1] deals with peripheral serotonin production. Description: Pilot study of tryptophan hydroxylase inhibitors on peripheral serotonin production in ovariectomized mice, Example 12. In kind it is in vivo. The conditions noted are these: pCPA used as control; FIG. 15. On the procedure: 6-week old C57Bl/6 inbred female mice, weighing 12-14 g, were used in the experiments. Animals were housed under 12 h light/12 h dark conditions in a room with controlled temperature (22° C.) and humidity (60%). Mice had ad libitum access to food and water, and were used after a minimum of 4 days of acclimatization to the housing conditions. All experiments were conducted following Columbia University Guidelines for the Animal Use and Care of laboratory mice.
Animals were separated into different groups one day prior to the experiments. Mice were ovariectomized (OVX) under anaesthesia (Avertin). Compounds were fed orally (Gavage) twice a day at 1700 h and at 1100 h for the pilot study while for the long term study compounds were given at 1700 h once a day. […] This route creates two potential barriers for the compound to reach the brain. […] Control animals received the same volume of vehicle. Blood was collected through heart puncture on isofluorane-anaesthesized animals, allowed to clot for 5 minutes on ice and then serum was separated, snap chilled in liquid nitrogen and frozen at −80° C. till analyzed. Mice were observed daily for any physical or behavioral abnormality during the course of investigation.
• Group 1: Vehicle • Group 2: Compound 1 • Group 3: Compound 2 • Group 4: Compound 3 • Group 5: Compound 4 (LP-533401) Experiment II: Effect of Compounds 1 and 4 on Protection from OVX-Induced Bone Loss Protocol 1: Gavage Feeding of the Compounds Will be Started 1 Day after OVX for 6 Weeks • Group 1: Sham treatment • Group 2: OVX • Group 3: OVX+Compound 1 (250 mg/kg) • Group 4: OVX+Compound 1 (500 mg/kg) • Group 5: OVX+Compound 4 (250 mg/kg) Protocol 2: Gavage Feeding of the Compounds Will be Started 2 Weeks after OVX for 6 Weeks • Group 1: Sham treatment • Group 2: OVX • Group 3: OVX+Compound 1 (250 mg/kg) • Group 4: OVX+Compound 1 (500 mg/kg) • Group 5: OVX+Compound 4 (250 mg/kg) Protocol 3: Gavage Feeding of the Compounds Will be Started 4 Weeks after OVX for 6 Weeks • Group 1: Sham treatment • Group 2: OVX • Group 3: OVX+Compound 1 (250 mg/kg) • Group 4: OVX+Compound 1 (500 mg/kg) • […] Serotonin Measurement in Serum
The Serotonin ELISA kit obtained from the Fitzgerald company was used to measure derivatized serotonin from serum. Derivatization is part of the sample preparation. Serotonin present in the serum was first quantitatively acylated using the acylation reagent into N-Acylserotonin. The principle of the assay is based on competitive ELISA, wherein serotonin that is bound to the solid phase of the plate and the N-acylserotonin compete for the fixed number of antiserum binding sites. When the reaction is in equilibrium, free antigen and free antigen-antiserum complexes are removed by washing. The antibody bound to the solid phase serotonin is then detected by anti-rabbit/peroxidase. The substrate TMB/Peroxidase reaction is read at 450 nm. The amount of antibody bound to the solid phase serotonin is inversely proportional to the concentration of serotonin in the sample.
We used Catechol-3,6-bis methyleneiminodiacetic acid [(CBMIDA) Compound 1: basic structure is a EDTA-like compound and the catechol ring is at the center)] synthesized at the Columbia University Chemistry division and para-Chlorophenylalanine (pCPA) obtained from Sigma Aldrich Corp. for our experiments. Compounds were dissolved with twice molar solution of NaHCO3 in water and given to mice orally at 250 and 500 mg/kg/dose. Compounds 2 and 3 were dissolved in water.

Turning to `NC(Cc1ccc(Cl)cc1)C(=O)O` (stereo not drawn) [pCPA, para-chlorophenylalanine], in the series on serotonin in the brain (250 mg/kg orally), the “serotonin in the brain” value is “did not decrease”. Further, the “crossing of the blood brain barrier” value with serotonin in the brain (at the amounts used (250 mg/kg)) was “did not cross”. For the same molecule, the “serotonin levels decreased to % below normal range” value in series [1] worked out at 60%.
